Drawing on EP0275515B1, “Aqueous pharmaceutical composition” (DAIICHI PHARMACEUTICAL CO., LTD., priority 1986, dated 1988), this text covers LD50 and residual concentrations for 1 molecule.

Series [1] in a line: Acute toxicity in mice (intravenous LD50). To be noted: mouse, in vivo, read-out: acute toxicity (LD₅₀, intravenous). On the procedure:
It is to be noted that the acute toxicity of the S-compound in mice (LD₅₀, intravenous) is 244 mg/kg.

Series [2] is described as follows: Storage stability of aqueous solution (residual concentration). The series is classed as physicochemical. The settings on record: 0.5 w/v% aqueous solution, pH range of 3 to 10, stored at 60°C for 1 or 2 weeks.

Regarding `C[C@H]1COc2c(N3CCN(C)CC3)c(F)cc3c(=O)c(C(=O)O)cn1c23` [S-compound, S-(-)-9-fluoro-3-methyl-10-(4-methyl-1-piperazinyl)-7-oxo-2,3-dihydro-7H-pyrido[1,2,3-de][1,4]benzoxazine-6-carboxylic acid], the LD50 in series [1] was found to be 244 mg/kg. In series [2], the residual concentrations result is “stably remained without decomposition”.
